Measured values: patent US20100069340A1, “PHARMACEUTICAL COMPOSITIONS OF AN SRC KINASE INHIBITOR AND AN AROMATASE INHIBITOR” (Wyeth, priority 2008, published 2010)
Read-outs that look alike come from different tables or passages of the source.

How the values were obtained:
[1] = system: MDA-MB-231 (ER neg); experiment: Cell proliferation assay (CellTiter Glo), MDA-MB-231; type: cell-based; conditions: Homo sapiens
Description: (§1) Cell lines were obtained from ATCC. Estrogen was obtained from SIGMA, 4-hydroxytamoxifen was obtained from SIGMA, Bosutinib was used for these studies. Charcoal-stripped serum and phenol red-free medium was obtained from Invitrogen. CellTiter Glo was obtained from Promega.
(§2) Cell cultures. Proliferation assays with cells in complete fetal calf serum were performed with medium containing phenol red. For all assays examining estrogen-dependence, cells were cultured in phenol red-free medium; DMEM/F12 (MCF7), RPMI1640 (MDA-MB-361, T47D) MEM (BT20, MDA-MB-231) McCoys5A modified (SKBR3), Leibowitz' L15 medium supplemented with 10 ng/mL insulin (MDA-MB-435 and MDA-MB-468) with 10% fetal bovine serum supplemented with glutamine and gentamicin. For proliferation assays, trypsinized cells were subjected to three cycles of centrifugation and resuspension in phenol red-free medium supplemented with charcoal stripped medium (5% final), glutamine and Pen/Strep. Cells were plated on day 0, with or without estrogen (10 nM final concentration). On day 1, 4-hydroxytamoxifen and SKI-606 or DMSO were added as a serial dilution. Cells were incubated for 7 days, after which CellTiter Glo (Promega) was added as recommended by the manufacturer. After mixing and two hours incubation on the bench, plates were read on an Envision reader. […] The 10 uM data point was dropped for these two lines since there was a clear plateau prior to the sharp drop in luminescence observed at 10 uM compound. The IC50 was calculated using a floating minima corresponding to the lowest luminescence value at 5 uM.
Cell proliferation assays were performed in two formats; a three day proliferation assay in fully supplemented medium with phenol red, and a 7 day proliferation assay in phenol red free medium supplemented with charcoal-stripped medium. […] ER positive T47D cells were slightly more sensitive to SKI-606 in the presence of estrogen. BT20 cells were equally sensitive to SKI-606 in stripped serum medium, regardless of whether estrogen was present. […]

[2] = system: MDA-MB-435 (ER neg); experiment: Cell proliferation assay, MDA-MB-435; type: cell-based; conditions: Homo sapiens, MDA-MB-435, 72 h; 3 Day assay, complete medium (10% FCS)
Description: as §1
as §2, with “Cells were incubated for 7 days, after which CellTiter Glo (Promega) was added as recommended by the manufacturer.” left out, “The IC50 was calculated using a floating minima corresponding to the lowest luminescence value at 5 uM.” left out

[3] = system: MDA-MB-361; experiment: Cell proliferation assay (CellTiter Glo), MDA-MB-361; type: cell-based; conditions: for IC50: Homo sapiens
Description: as §1, §2
Cell proliferation assays were performed in two formats; a three day proliferation assay in fully supplemented medium with phenol red, and a 7 day proliferation assay in phenol red free medium supplemented with charcoal-stripped medium. […] ER positive T47D cells were slightly more sensitive to SKI-606 in the presence of estrogen. BT20 cells were equally sensitive to SKI-606 in stripped serum medium, regardless of whether estrogen was present.
Proliferation data for SKI-606 in various breast tumor lines in complete medium (10% FCS) and charcoal stripped serum with no phenol red (no E2, E2) with and without 10 nM estrogen. The complete medium data were obtained in 3-day assays, while stripped serum assays were extended for 7 days with one change of medium at day 5. The IC50 values for the BT20 line was calculated using the “plateau” cell number evident at 5 μM SKI-606.

[4] = system: T47D; experiment: Cell proliferation assay (CellTiter Glo), T47D; type: cell-based; conditions: Homo sapiens, 168 h, 7 Day assay, charcoal stripped serum, no phenol red
Description: as §1
as §2, with “Cells were incubated for 7 days, after which CellTiter Glo (Promega) was added as recommended by the manufacturer.” left out, “The IC50 was calculated using a floating minima corresponding to the lowest luminescence value at 5 uM.” left out

[5] = clinical; conditions: for AUC: Mean steady state AUC; for Cmax: Mean steady state Cmax
Description: A phase 1 single-agent trial of bosutinib to determine the safety, tolerability, and pharmacokinetics of orally administered bosutinib in subjects with advanced-stage, previously treated, solid tumors is currently ongoing. […] Subjects are continued on bosutinib until disease progression, or the occurrence of a significant toxicity considered possibly related to bosutinib. Dosing was started at 50 mg per day. Subsequent dose levels studied have included 100 mg, 200 mg, 300 mg, 400 mg, 500 mg and 600 mg. Safety is assessed for 21 days in 3 to 6 subjects before beginning the cohort at the next incremental dose.

[6] = system: BT474; experiment: Cell proliferation assay (CellTiter Glo), BT474; type: cell-based; conditions: Homo sapiens, BT-474, 168 h, 7 Day assay, charcoal stripped serum, no phenol red
Description: as §1
Cell cultures. Proliferation assays with cells in complete fetal calf serum were performed with medium containing phenol red. For all assays examining estrogen-dependence, cells were cultured in phenol red-free medium; DMEM/F12 (MCF7), RPMI1640 (MDA-MB-361, T47D) MEM (BT20, MDA-MB-231) McCoys5A modified (SKBR3), Leibowitz' L15 medium supplemented with 10 ng/mL insulin (MDA-MB-435 and MDA-MB-468) with 10% fetal bovine serum supplemented with glutamine and gentamicin. For proliferation assays, trypsinized cells were subjected to three cycles of centrifugation and resuspension in phenol red-free medium supplemented with charcoal stripped medium (5% final), glutamine and Pen/Strep. Cells were plated on day 0, with or without estrogen (10 nM final concentration). On day 1, 4-hydroxytamoxifen and SKI-606 or DMSO were added as a serial dilution. Cells were incubated for 7 days, after which CellTiter Glo (Promega) was added as recommended by the manufacturer. After mixing and two hours incubation on the bench, plates were read on an Envision reader. […]

[7] = 10 nM estrogen, read-out: IC50 (uM) E2
[8] = without estrogen, read-out: IC50 (uM) no E2

With COc1cc(Nc2c(C#N)cnc3cc(OCCCN4CCN(C)CC4)c(OC)cc23)c(Cl)cc1Cl [bosutinib] as the compound, how does the IC50 ([1]; MDA-MB-231, 72 h, 3 Day assay, complete medium (10% FCS), read-out: IC50 (uM) 10% FCS) read?
Its IC50 is 4.3 µM.

What about the IC50 ([1]; MDA-MB-231, 168 h, 7 Day assay, charcoal stripped serum, no phenol red, 10 nM estrogen, read-out: IC50 (uM) E2) of the same compound?
The IC50 was 5.05 µM.

And the IC50 ([1]; MDA-MB-231, 168 h, 7 Day assay, charcoal stripped serum, no phenol red, without estrogen, read-out: IC50 (uM) no E2)?
Its IC50 is 5.1 µM.

And the IC50 [2]?
The IC50 was 3.4 µM.

What about the “toxicity at maximal concentration” value ([3]; 10 uM SKI-606, MDA-MB-361 cells) of the same compound?
The value was “some toxicity was seen”.

What about the IC50 ([3]; MDA-MB-361, 72 h, 3 Day assay, complete medium (10% FCS), read-out: IC50 (uM) 10% FCS) of the same compound?
The IC50 was 2.5 µM.

What about the IC50 ([3]; MDA-MB-361, 168 h, 7 Day assay, charcoal stripped serum, no phenol red, 10 nM estrogen, read-out: IC50 (uM) E2) of the same compound?
Its IC50 is 0.38 µM.

What about the IC50 ([3]; MDA-MB-361, 168 h, 7 Day assay, charcoal stripped serum, no phenol red, without estrogen, read-out: IC50 (uM) no E2) of the same compound?
Its IC50 is 0.74 µM.

And the “effect on estrogen-dependent and estrogen-independent growth” value ([3]; MDA-MB-361)?
The value was “inhibited estrogen-dependent and estrogen-independent growth”.

And the IC50 [4, 7]?
The IC50 was 1.28 µM.

What about the IC50 [4, 8] of the same compound?
Its IC50 is 2.85 µM.

What about the “Mean steady state AUC” value ([5]; human, in vivo, po) of the same compound?
Its value is 3660 ng·h/mL.

What about the “Mean steady state Cmax” value ([5]; human, in vivo, po) of the same compound?
Its value is 200 ng/mL.

What about the “Multiple-dose exposure versus single-dose exposure” value ([5]; human, in vivo, po) of the same compound?
The value was 2-3 fold.

What about the Tmax ([5]; human, in vivo, po) of the same compound?
Its Tmax is 3 to 6 h.

What about the half-life ([5]; human, in vivo, po) of the same compound?
The half-life was 22 to 25 h.

What about the AUC ([5]; human, in vivo, po, 600 mg) of the same compound?
The AUC was 3360 ng·h/mL.

And the Cmax ([5]; human, in vivo, po, 600 mg)?
Its Cmax is 208 ng/mL.

And the AUC ([5]; human, in vivo, po)?
Its AUC is 2580 ng·h/mL.

What about the Cmax ([5]; human, in vivo, po) of the same compound?
The Cmax was 157 ng/mL.

What about the “Dose limiting toxicities observed” value ([5]; in vivo, po) of the same compound?
Its value is “nausea, vomiting, diarrhea, and rash”.

And the “protocol-defined maximum tolerable dose” value ([5]; subjects with multiple-relapsed solid tumors, oral)?
The value was 500 mg daily.

And the IC50 [6, 7]?
The IC50 was 2.32 µM.

What about the IC50 [6, 8] of the same compound?
Its IC50 is 2.22 µM.
